Results taken from US20240391862A1, “(1,4,5-TRISUBSTITUTED-1H-PYRAZOL-3-YL)OXY-2-ALKOXY ALKYL ACIDS AND THEIR DERIVATIVES, THEIR SALTS AND THEIR USE AS HERBICIDAL AGENTS” (Bayer AKtiengesellschaft, priority 2021, published 2024).

Tests used:
VERPE = assay: Post-emergence herbicidal effect, greenhouse pot test; format: in vivo, Veronica persica
Summary of the method: (§1)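 Sandy loam pots, greenhouse. One-leaf stage (2–3 wk after sowing) foliar spray; WP/EC in water + 0.5% additive, 600 l/ha; 20–320 g/ha. Visual score ~3 wk, 0–100% vs untreated.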

ECHCG = assay: as above; format: in vivo, Echinochloa crus-galli
Summary of the method: as §1

SETVI = assay: as above; format: in vivo, Setaria viridis
Summary of the method: as §1

TRZAS = assay: Post-emergence herbicidal effect and crop plant compatibility, greenhouse pot test; format: in vivo, Triticum aestivum; conditions: 20 g/ha, one-leaf stage, rated visually after about 3 weeks vs untreated controls
Summary of the method: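 Visual % activity scored roughly 3 weeks post-spray against untreated plants, where 100% means death and 0% equals control. Plants were treated at the one-leaf stage, 2 to 3 weeks after sowing in sandy loam, at 20 to 320 g/ha.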

VIOTR = assay: Post-emergence herbicidal effect, greenhouse pot test; format: in vivo, Viola tricolor
Summary of the method: as §1

AMARE = assay: as above; format: in vivo, Amaranthus retroflexus; conditions: visual rating about 3 weeks after treatment
Summary of the method: as §1

LOLRI = assay: as above; format: in vivo, Lolium rigidum
Summary of the method: as §1

MATIN = assay: as above; format: in vivo, Tripleurospermum inodorum
Summary of the method: as §1

DIGSA = assay: as above; format: in vivo, Digitaria sanguinalis; conditions: 320 g/ha, visual rating about 3 weeks after treatment
Summary of the method: as §1

PHBPU = assay: as above; format: in vivo, Ipomoea purpurea
Summary of the method: as §1

ALOMY = assay: as above; format: in vivo, Alopecurus myosuroides; conditions: 320 g/ha, visual rating about 3 weeks after treatment
Summary of the method: as §1

POLCO = assay: as above; format: in vivo, Fallopia convolvulus
Summary of the method: as §1

ABUTH = assay: as above; format: in vivo, Abutilon theophrasti; conditions: visual rating about 3 weeks after treatment
Summary of the method: as §1

AVEFA = assay: as above; format: in vivo, Avena fatua; conditions: visual rating about 3 weeks after treatment
Summary of the method: as §1

SMILES: COC(=O)CCOC(=O)C(OC)Oc1nn(-c2cc(F)ccc2F)c(-c2cncc(F)c2)c1C1CC1 (single isomer, unassigned) [Example I-78]
- Post-emergence effect against VERPE in % (VERPE; 20 g/ha): 80%
- Post-emergence effect against VERPE in % (VERPE; 80 g/ha): 90%
- Post-emergence effect against VERPE in % (VERPE; 320 g/ha): 90%
- Post-emergence effect against ECHCG (ECHCG; 20 g/ha, visual rating about 3 weeks after treatment): 90%
- Post-emergence effect against ECHCG in % (ECHCG; 80 g/ha): 90%
- Post-emergence effect against ECHCG in % (ECHCG; 320 g/ha): 90%
- Post-emergence effect against SETVI in % (SETVI; 80 g/ha): 90%
- Post-emergence effect against SETVI in % (SETVI; 320 g/ha): 90%
- Post-emergence effect at 20 g/ha against TRZAS in % (TRZAS): 0%
- Post-emergence effect against VIOTR in % (VIOTR; 20 g/ha): 80%
- Post-emergence effect against VIOTR in % (VIOTR; 80 g/ha): 90%
- Post-emergence effect against VIOTR in % (VIOTR; 320 g/ha): 90%
- Post-emergence effect against AMARE (AMARE; 80 g/ha): 90%
- Post-emergence effect against AMARE (AMARE; 320 g/ha): 90%
- Post-emergence effect against LOLRI in % (LOLRI; 80 g/ha): 90%
- Post-emergence effect against LOLRI in % (LOLRI; 320 g/ha): 90%
- Post-emergence effect against MATIN in % (MATIN; 20 g/ha): 80%
- Post-emergence effect against MATIN in % (MATIN; 80 g/ha): 90%
- Post-emergence effect against MATIN in % (MATIN; 320 g/ha): 90%
- Post-emergence effect against DIGSA (DIGSA): 80%
- Post-emergence effect against PHBPU in % (PHBPU; 20 g/ha): 80%
- Post-emergence effect against PHBPU in % (PHBPU; 80 g/ha): 90%
- Post-emergence effect against PHBPU in % (PHBPU; 320 g/ha): 90%
- Post-emergence effect against ALOMY (ALOMY): 90%
- Post-emergence effect against POLCO in % (POLCO; 80 g/ha): 90%
- Post-emergence effect against POLCO in % (POLCO; 320 g/ha): 90%
- Post-emergence effect against ABUTH (ABUTH; 20 g/ha): 80%
- Post-emergence effect against ABUTH (ABUTH; 80 g/ha): 80%
- Post-emergence effect against ABUTH (ABUTH; 320 g/ha): 80%
- Post-emergence effect against AVEFA (AVEFA; 80 g/ha): 90%
- Post-emergence effect against AVEFA (AVEFA; 320 g/ha): 90%

SMILES: CCOC(=O)C(OC)Oc1nn(-c2cc(F)ccc2F)c(-c2cncc(F)c2)c1Br (centres unmarked) [Example I-33]
- pest or weed control at 80 g/ha (VERPE; Veronica persica, 504 h, 80 g/ha, read-out: Post-emergence effect against VERPE in %): 80%
- pest or weed control at 320 g/ha (VERPE; Veronica persica, 504 h, 320 g/ha, read-out: Post-emergence effect against VERPE in %): 90%
- pest or weed control at 80 g/ha (ECHCG; Echinochloa crus-galli, 504 h, 80 g/ha, read-out: Post-emergence effect against ECHCG in %): 80%
- pest or weed control at 320 g/ha (ECHCG; Echinochloa crus-galli, 504 h, 320 g/ha, read-out: Post-emergence effect against ECHCG in %): 90%
- pest or weed control at 80 g/ha (SETVI; Setaria viridis, 504 h, 80 g/ha, read-out: Post-emergence effect against SETVI in %): 90%
- pest or weed control at 320 g/ha (SETVI; Setaria viridis, 504 h, 320 g/ha, read-out: Post-emergence effect against SETVI in %): 90%
- percent crop injury (phytotoxicity) to wheat, post-emergence at 20 g/ha (TRZAS; Triticum aestivum, 504 h, read-out: Post-emergence effect at 20 g/ha against TRZAS in %): 20%
- pest or weed control at 20 g/ha (VIOTR; Viola tricolor, 504 h, 20 g/ha, read-out: Post-emergence effect against VIOTR in %): 80%
- pest or weed control at 80 g/ha (VIOTR; Viola tricolor, 504 h, 80 g/ha, read-out: Post-emergence effect against VIOTR in %): 80%
- pest or weed control at 320 g/ha (VIOTR; Viola tricolor, 504 h, 320 g/ha, read-out: Post-emergence effect against VIOTR in %): 90%
- pest or weed control at 320 g/ha (LOLRI; Lolium rigidum, 504 h, 320 g/ha, read-out: Post-emergence effect against LOLRI in %): 90%
- pest or weed control at 80 g/ha (MATIN; Tripleurospermum inodorum, 504 h, 80 g/ha, read-out: Post-emergence effect against MATIN in %): 80%
- pest or weed control at 320 g/ha (MATIN; Tripleurospermum inodorum, 504 h, 320 g/ha, read-out: Post-emergence effect against MATIN in %): 90%
- pest or weed control at 320 g/ha (DIGSA; Digitaria sanguinalis, 504 h, read-out: Post-emergence effect against DIGSA): 80%
- pest or weed control at 20 g/ha (PHBPU; Ipomoea purpurea, 504 h, 20 g/ha, read-out: Post-emergence effect against PHBPU in %): 80%
- pest or weed control at 80 g/ha (PHBPU; Ipomoea purpurea, 504 h, 80 g/ha, read-out: Post-emergence effect against PHBPU in %): 90%
- pest or weed control at 320 g/ha (PHBPU; Ipomoea purpurea, 504 h, 320 g/ha, read-out: Post-emergence effect against PHBPU in %): 90%
- pest or weed control at 320 g/ha (ALOMY; Alopecurus myosuroides, 504 h, read-out: Post-emergence effect against ALOMY): 90%
- pest or weed control at 320 g/ha (POLCO; Fallopia convolvulus, 504 h, 320 g/ha, read-out: Post-emergence effect against POLCO in %): 80%
- pest or weed control at 80 g/ha (ABUTH; Abutilon theophrasti, 504 h, 80 g/ha, read-out: Post-emergence effect against ABUTH): 90%
- pest or weed control at 320 g/ha (ABUTH; Abutilon theophrasti, 504 h, 320 g/ha, read-out: Post-emergence effect against ABUTH): 90%
- pest or weed control at 320 g/ha (AVEFA; Avena fatua, 504 h, 320 g/ha, read-out: Post-emergence effect against AVEFA): 90%
